Measured values as given in the NIST ThermoML archive (doi:10.1016/j.fluid.2011.11.028).

Tests used:
[1] = cn = amount concentration of the nth substance listed, in mol/dm3; conditions: 298.15 K, 101 kPa, Liquid, Alternating current cell with electrodes
[2] = mn = molality of the nth substance listed, in mol/kg; conditions: 298.15 K, 101 kPa, Liquid; for viscosity: Capillary tube (Ostwald / Ubbelohde) method; for mass density: Vibrating tube method

CCCCn1cc[n+](C)c1.[Cl-] [1-butyl-3-methylimidazolium chloride] + O
[1]
Conditions	molar conductivity [S·m2/mol]
c1 = 0.0004734	0.0107
c1 = 0.0006936	0.0106
c1 = 0.0008909	0.0106
c1 = 0.001113	0.0105
c1 = 0.001311	0.0105
c1 = 0.001497	0.0105
c1 = 0.00167	0.0105
c1 = 0.001839	0.0104
c1 = 0.001984	0.0104
c1 = 0.002099	0.0104

CCCCCCCCCCn1cc[n+](C)c1.[Cl-] [1-decyl-3-methylimidazolium chloride] + O
[1]
Conditions	molar conductivity [S·m2/mol]
c1 = 0.0001226	0.00997
c1 = 0.0002378	0.00993
c1 = 0.0003622	0.0099
c1 = 0.0004428	0.00987
c1 = 0.0005678	0.00984
c1 = 0.000679	0.00981
c1 = 0.0007671	0.0098
c1 = 0.0008693	0.00978
c1 = 0.001044	0.00975
c1 = 0.001192	0.00974
c1 = 0.001374	0.00972
c1 = 0.00153	0.0097

CCCCCCn1cc[n+](C)c1.[Cl-] [1-hexyl-3-methylimidazolium chloride] + O
[1]
Conditions	molar conductivity [S·m2/mol]
c1 = 0.0001239	0.0103
c1 = 0.0002407	0.0103
c1 = 0.0003449	0.0102
c1 = 0.0004557	0.0102
c1 = 0.0005824	0.0102
c1 = 0.0007219	0.0101
c1 = 0.0008733	0.0101
c1 = 0.0009879	0.0101
c1 = 0.001214	0.0101
c1 = 0.001417	0.01
c1 = 0.001669	0.01
c1 = 0.001927	0.00999

CCCCCCCC[n+]1ccn(C)c1.[Cl-] [1-methyl-3-octylimidazolium chloride] + O
[1]
Conditions	molar conductivity [S·m2/mol]
c1 = 0.0003264	0.0101
c1 = 0.000434	0.0101
c1 = 0.0005416	0.01
c1 = 0.0006484	0.01
c1 = 0.0007536	0.01
c1 = 0.0008878	0.00997
c1 = 0.001103	0.00995
c1 = 0.001269	0.00993
c1 = 0.001538	0.0099
c1 = 0.001689	0.00989
c1 = 0.001863	0.00987

O=C[C@H](O)[C@@H](O)[C@@H](O)[C@H](O)CO [(+)-galactose] + O
[2]
Conditions	mass density [kg/m3]	viscosity [mPa·s]
m1 = 0.2	1010.73	0.97
m1 = 0.4	1023.81	1.06
m1 = 0.6	1036.28	1.16
m1 = 0.8	1048.23	1.267
m1 = 1	1059.6	1.381
m1 = 1.2	1070.53	1.5

O=C[C@H](O)[C@@H](O)[C@H](O)[C@H](O)CO [D-glucose] + O
[2]
Conditions	mass density [kg/m3]	viscosity [mPa·s]
m1 = 0.2	1010.39	0.974
m1 = 0.4	1023.12	1.066
m1 = 0.6	1035.32	1.166
m1 = 0.8	1046.92	1.273
m1 = 1	1057.99	1.385
m1 = 1.2	1068.59	1.501

O=C[C@H](O)[C@H](O)[C@H](O)CO [D-ribose] + O
[2]
Conditions	mass density [kg/m3]	viscosity [mPa·s]
m1 = 0.2	1007.85	0.949
m1 = 0.4	1018.22	1.011
m1 = 0.6	1028.18	1.077
m1 = 0.8	1037.77	1.145
m1 = 1	1046.98	1.215
m1 = 1.2	1055.89	1.278

O=C[C@H](O)[C@@H](O)[C@H](O)CO [D-xylose] + O
[2]
Conditions	mass density [kg/m3]	viscosity [mPa·s]
m1 = 0.2	1007.79	0.953
m1 = 0.4	1018.1	1.022
m1 = 0.6	1028.02	1.096
m1 = 0.8	1037.53	1.175
m1 = 1	1046.69	1.258
m1 = 1.2	1055.41	1.344
